One data set concerns uninduced N2A cells. Type of data set: cell-based. The following applies: cell death as percent of LDH released into medium vs total LDH, compound 10 μM. As for the experimental part:
Neurotoxicity assay: Neurotoxicity was assessed using an LDH (lactate dehydrogenase) assay kit (Roche, Mannheim, Germany) according to the manufacturer's specifications. In the viability assay the aggregation inhibitor compound was added at a final concentration of 10 μM to uninduced N2A cells. The activity of LDH was measured spectrophotometrically at 492 nm. Cell death was calculated as percent of LDH released into medium, compared to total LDH obtained after total cell lysis.

A further data set concerns N2a/K18ΔK280 cells. Briefly: Tau aggregation and inhibition assay in cells (ThS staining). Type of data set: cell-based. The following applies: 120 h, read-out: Inhibition in cells. The method, then: Selection of an N2a, Tet-On, G418-resistant cell line: N2a cells were cotransfected with both the pUHD172-1 plasmid (encoding the rtTA, obtained from H. Bujard, Heidelberg) and pEU-1 plasmid (encoding G418 resistance, a derivative of pRc/CMV, Invitrogen) (ratio 20:1; 1 μg/well of 6-well plates) using the DOTAP transfection reagent (Roche, Basel, CH). The cells were cultured in Eagle's Minimum Essential Medium (MEM) supplemented with 10% defined fetal bovine serum and subjected to G418 (600 μg/ml) and selection. The cells were fed with fresh media every 4 days for 3-4 weeks when single colonies appeared. Clones were tested for the induction level by transient transfection of pUHG 16-3 plasmid and the induction of β-galactosidase was measured.
Generation of inducible Tet-On cell lines: The DNA fragments encoding the appropriate tau constructs (K18WT, K18ΔK280, K18/ΔK280/PP) were inserted into the bidirectional vector pBI-5 between ClaI and SalI restriction sites (pBI-5 is an unpublished derivative of pBI-2, Baron et al., 1995). The pBI-5/K18-derived plasmids with pX343 (plasmid encoding the hygromycin resistance) were used for cotransfection of N2a/Tet-On, G418-resistant cells with the aid of DOTAP (20:1 plasmid ratio; 1 μg/well of 6-well plates). The cells were seeded at 4×10^5 cells per well. On the following day cells were transferred to 100-mm dishes and selected with 100 μg/ml of hygromycin and 600 μg/ml of G418. Clonal cell lines were screened for the inducible expression of K18 derivatives by measuring luciferase activity with the luciferase assay and immunofluorescence for tau protein with the polyclonal pan-tau antibody K9JA.
Induction of K18-derivatives in Tet-On N2a cells: The inducible N2a/K18-derivatives cells were cultured in MEM medium supplemented with 10% fetal calf serum, 2 mM glutamine and 0.1% nonessential amino acids. The expression of K18 constructs was induced by adding 1 μg doxycyclin (Dox) per 1 ml medium. The induction was continued for 7-11 days, the medium was changed 3 times (always complemented with doxycyclin). For tau solubility assays the cells were collected by pelleting during centrifugation at 1000×g for 5 min. The levels and solubility of tau K18/ΔK280 were determined following Greenberg and Davies (1990). The cells were homogenized (DIAX900, Heidolph, Schwabach, Germany) in 10 vol (w/v) of buffer consisting of 10 mM Tris-HCl (pH 7.4), 0.8 M NaCl, 1 mM EGTA, and 10% sucrose. The homogenate was spun for 20 min at 20000×g, and the supernatant was retained. The pellet was re-homogenized in 5 vol of homogenization buffer and re-centrifuged. Both supernatants were combined, brought to 1% N-laurylsarkosinate (w/v) and incubated for 1 hr at room temperature while shaking, followed by centrifugation at 100 000×g for 1 hr. The sarkosyl-insoluble pellets were resuspended in 50 mM Tris-HCl (pH 7.4), 0.5 ml per 1 g of starting material. The supernatant and sarkosyl-insoluble pellet samples were analyzed by Western blotting. The amount of material loaded for supernatant and sarkosyl-insoluble pellet represented about 0.5% and 15% of the total material present in the supernatant and pellet respectively (the ratio between supernatant and sarkosyl insoluble pellet was always 1:30). For quantification of tau levels in each fraction, the Western blots were probed with pan-tau antibody K9JA and analyzed by densitometry (LAS 3000 and AIDA software, Raytest, Straubenhardt, Germany).
Quantitation of tau aggregation in cells by Thioflavin S (ThS) staining: Tet-On inducible undifferentiated N2a cells were treated with 1 μg/ml doxycyclin for 5, 7 or 9 days in a culture dish. After that the cells were trypsinized and transferred to coverslips and incubated overnight. The cells on the coverslips were fixed with 4% paraformaldehyde in PBS for 15 min, then permeabilized with 80% MeOH for 6 min at −20° C., and incubated with 0.1% Thioflavin S for 5 min and washed three times in ethanol (50%). […]

In another data set the target is tau construct K19 (Homo sapiens, UniProt P10636). The data set is described as follows: Thioflavine S (ThS) assay for aggregation of tau. Type of data set: biochemical. As for the experimental part:
Thioflavine S (ThS) Assay for aggregation of tau: 10 μM of the tau construct K19 were incubated with compounds in a concentration range from 1 nM up to 200 μM in the presence of 2.5 μM heparin in 50 mM NH4Ac buffer over night at 37° C. After addition of 20 μM ThS the signal was measured at 521 nm (emission) at an excitation wavelength of 440 nm. The results of this assay are presented in the IC50 column and DC50 column of Table 1 below.

[1] abbreviates: N2a/K18ΔK280 cells, compound 10 μM with doxycyclin, 5 days, ThS-positive cells scored.
The mark [2] stands for this setting: 10 μM tau construct K19, 2.5 μM heparin, ThS fluorescence, read-out: DC50.
Where [3] appears, read: 10 μM tau construct K19, 2.5 μM heparin, over night at 37° C., ThS fluorescence, read-out: ID50 (the source's name).
Setting [4] is: 10 μM tau construct K19, 2.5 μM heparin, ThS fluorescence.

SMILES strings stand for the structures. Like-named read-outs stand apart in the source and are kept apart here.

Chain of tau construct K19 (P10636 with tags, fused parts or gaps isoform P10636-2 limits assumed): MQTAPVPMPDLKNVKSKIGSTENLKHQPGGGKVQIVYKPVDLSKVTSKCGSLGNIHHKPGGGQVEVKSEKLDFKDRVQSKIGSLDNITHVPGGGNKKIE

Consider `O=C(NNc1nc(-c2ccc([N+](=O)[O-])cc2)cs1)c1ccc(-c2ccccc2)cc1` [Comp. 7, N′-[4-(4-nitrophenyl)-1,3-thiazol-2-yl]-1,1′-biphenyl-4-carbohydrazide], for which the LDH in the data set with uninduced N2A cells is given as 5.0%. The inhibition at 10 µM with N2a/K18ΔK280 cells (setting [1]) is 69.7%. For the same molecule, the DC50 at tau construct K19 (setting [2]) came to 1.2 µM. For the same molecule, at tau construct K19 (setting [3]), the IC50 stood at 1.3 µM.

`CC(C)COc1ccc(-c2csc(NNC(=O)c3cc4ccccc4[nH]3)n2)cc1` [Comp. 56, N′-[4-(4-isobutyloxyphenyl)-1,3-thiazol-2-yl]-1H-indole-2-carbohydrazide]: the LDH with uninduced N2A cells is reported as −0.6%. The inhibition at 10 µM in the data set on N2a/K18ΔK280 cells was found to be 50.8%. Also, the IC50 against tau construct K19 amounted to 111 µM. On tau construct K19 (setting [4]), this molecule displayed a DC50 of more than 200 µM.

Take `Cc1nc(NNC(=O)c2ccc3[nH]cnc3c2)sc1-c1ccc(Br)cc1` [Comp. 62, N′-[5-(4-bromophenyl)-4-methyl-1,3-thiazol-2-yl]-1H-benzimidazole-5-carbohydrazide]: the LDH in the data set on uninduced N2A cells is on record as −2.8%. The inhibition at 10 µM in the data set with N2a/K18ΔK280 cells is 68.3%. Besides, the DC50 at tau construct K19 (setting [2]) worked out at 38.1 µM. Besides, the IC50 at tau construct K19 (setting [3]) stood at 33.5 µM.

As for `COc1ccc(C(=O)NNc2nc(C3C4CC5CC(C4)CC3C5)cs2)cc1` (centres unmarked) [Comp. 65, N′-[4-(2-adamantyl)-1,3-thiazol-2-yl]-4-mathoxybenzohydrazide], in the data set on uninduced N2A cells, the LDH is 39.4%. The inhibition at 10 µM in the data set on N2a/K18ΔK280 cells (setting [1]) came to 42.1%. Moreover, the DC50 at tau construct K19 (setting [2]) is more than 200 µM. The IC50 at tau construct K19 (setting [3]) worked out at 112 µM.

In the case of `N#Cc1ccc(-c2csc(NNC(=O)c3cc4ccccc4[nH]3)n2)cc1` [Comp. 57, N′-[4-(4-cyanophenyl)-1,3-thiazol-2-yl]-1H-indole-2-carbohydrazide], the LDH with uninduced N2A cells came to 2.7%. Moreover, the inhibition at 10 µM in the data set on N2a/K18ΔK280 cells amounted to 49.3%. The IC50 against tau construct K19 was more than 200 µM. Also, the DC50 on tau construct K19 (setting [4]) is more than 200 µM.

On to `O=C(NNc1nc(-c2ccccc2Br)cs1)c1cc2ccccc2[nH]1` [Comp. 60, N′-[4-(2-bromophenyl)-1,3-thiazol-2-yl]-1H-indole-2-carbohydrazide], for which, in the data set on uninduced N2A cells, the LDH is 0.1%. Further, the inhibition at 10 µM in the data set with N2a/K18ΔK280 cells turned out to be 41.5%. At tau construct K19, this molecule registered an IC50 of more than 200 µM. At tau construct K19 (setting [4]), the DC50 is more than 200 µM.

On to `O=C(NNc1nc(-c2ccc3ccccc3c2)cs1)c1ccc(C(F)(F)F)cc1` [Comp. 50, N′-[4-(2-naphthyl)-1,3-thiazol-2-yl]-4-(trifluoromethyl)benzohydrazide], for which the LDH with uninduced N2A cells is −7.6%. For the same molecule, the inhibition at 10 µM in the data set with N2a/K18ΔK280 cells (setting [1]) came to 52.6%.

As for `O=C(NNc1nc(-c2ccccc2)cs1)c1ccccc1F` [Comp. 41, 2-fluoro-N′-(4-phenyl-1,3-thiazol-2-yl)benzohydrazide], the LDH in the data set on uninduced N2A cells stood at 6.5%. Further, on tau construct K19 (setting [2]), the DC50 worked out at 127 µM. Further, the IC50 on tau construct K19 (setting [3]) was more than 200 µM.

On to `O=C(NNc1nc(-c2ccccc2)cs1)c1ccc(Cl)cc1`, for which the LDH with uninduced N2A cells was found to be 34.3%. For the same molecule, the DC50 at tau construct K19 (setting [2]) was more than 200 µM. On tau construct K19 (setting [3]), the IC50 is more than 200 µM.

For `O=C(NNc1nc(-c2ccc([N+](=O)[O-])cc2)cs1)c1cccnc1` [Comp. 11, N′-[4-(4-nitrophenyl)-1,3-thiazol-2-yl]nicotinohydrazide], the LDH with uninduced N2A cells is 12.9%. The DC50 at tau construct K19 (setting [2]) turned out to be 0.7 µM. In addition, the IC50 on tau construct K19 (setting [3]) was 3.1 µM.

As for `O=C(NNc1nc(-c2ccccc2)cs1)c1cccnc1` [Comp. 1, N′-(4-Phenylthiazol-2-yl)nicotinohydrazide], the LDH in the data set on uninduced N2A cells turned out to be 56.8%. Moreover, the DC50 on tau construct K19 (setting [2]) was found to be 1.7 µM. The IC50 on tau construct K19 (setting [3]) was 17 µM.

On to `O=C(NNc1nc(-c2cc3ccccc3oc2=O)cs1)c1ccc(F)cc1` [Comp. 5, 4-Fluoro-N′-(4-(2-oxo-2H-chromen-3-yl)thiazol-2-yl)benzohydrazide], for which the LDH with uninduced N2A cells is reported as 8.6%. Moreover, the DC50 on tau construct K19 (setting [2]) is more than 200 µM. In addition, the IC50 at tau construct K19 (setting [3]) was 47.2 µM.

For the molecule `O=C(NNc1nc(-c2ccccc2)cs1)c1ccc(F)cc1` [Comp. 24, 4-fluoro-N′-(4-phenyl-1,3-thiazol-2-yl)benzohydrazide], the LDH in the data set on uninduced N2A cells was 5.5%. Further, on tau construct K19 (setting [2]), the DC50 came out at 16.5 µM. Besides, on tau construct K19 (setting [3]), the IC50 was determined as 33.6 µM.

For `O=C(NNc1nc(-c2ccccc2)cs1)c1ccc(F)cc1` [Comp. 34, 4-fluoro-N′-(4-phenyl-1,3-thiazol-2-yl)benzohydrazide], the LDH in the data set with uninduced N2A cells turned out to be 2.6%. Besides, the DC50 on tau construct K19 (setting [2]) is more than 200 µM. Besides, the IC50 on tau construct K19 (setting [3]) is more than 200 µM.

Turning to `O=C(NNc1nc(-c2ccccc2)cs1)c1ccc2ccccc2c1` [Comp. 42, N′-(4-phenyl-1,3-thiazol-2-yl)-2-naphthohydrazide], the LDH with uninduced N2A cells is 8.2%. The DC50 at tau construct K19 (setting [2]) amounted to 16.4 µM. For the same molecule, on tau construct K19 (setting [3]), the IC50 was more than 200 µM.

For `O=C(NNc1nc(-c2ccc(Br)cc2)cs1)c1cccnc1` [Comp. 12, N′-[4-(4-bromophenyl)-1,3-thiazol-2-yl]nicotinohydrazide], the LDH with uninduced N2A cells came out at 13.6%. At tau construct K19 (setting [2]), the DC50 came out at 0.5 µM. In addition, the IC50 at tau construct K19 (setting [3]) came to 3.3 µM.

For the molecule `O=C(NNc1nc(-c2cc3ccccc3oc2=O)cs1)c1ccc(-c2ccccc2)cc1` [Comp. 47, N′-[4-(2-oxo-2H-chromen-3-yl)-1,3-thiazol-2-yl]-1,1′-biphenyl-4-carbohydrazide], the LDH in the data set on uninduced N2A cells amounted to 44.7%. The DC50 at tau construct K19 (setting [2]) is more than 200 µM. Also, at tau construct K19 (setting [3]), the IC50 was more than 200 µM.

With `[N-]=[N+]=Nc1ccc(-c2csc(NNC(=O)c3ccc(F)cc3)n2)cc1` [Comp. 14, N′-[4-(4-azidophenyl)-1,3-thiazol-2-yl]-4-fluorobenzohydrazide], the LDH in the data set with uninduced N2A cells is recorded as 42.5%. The DC50 at tau construct K19 (setting [2]) was 1.3 µM. For the same molecule, the IC50 at tau construct K19 (setting [3]) is 4.7 µM.

As to `O=C(NNc1nc(-c2ccc(Br)cc2)cs1)c1ccc2c(c1)OCO2` [Comp. 38, N′-[4-(4-bromophenyl)-1,3-thiazol-2-yl]-1,3-benzodioxole-5-carbohydrazide], in the data set on uninduced N2A cells, the LDH is recorded as 4.6%. On tau construct K19 (setting [2]), the DC50 was more than 200 µM. The IC50 at tau construct K19 (setting [3]) was more than 200 µM.

Turning to `O=C(NNc1nc(-c2ccc([N+](=O)[O-])cc2)cs1)c1ccco1` [Comp. 17, N′-[4-(4-nitrophenyl)-1,3-thiazol-2-yl]-2-furohydrazide], the LDH in the data set with uninduced N2A cells was determined as 4.9%. Also, the DC50 at tau construct K19 (setting [2]) was 0.8 µM. Also, the IC50 at tau construct K19 (setting [3]) stood at 6.3 µM.

As to `O=C(NNc1nc(-c2cccc([N+](=O)[O-])c2)cs1)c1ccccc1Cl` [Comp. 25, 2-chloro-N′-[4-(3-nitrophenyl)-1,3-thiazol-2-yl]benzohydrazide], the LDH with uninduced N2A cells was determined as 43.0%. The DC50 at tau construct K19 (setting [2]) was more than 200 µM. Further, at tau construct K19 (setting [3]), the IC50 came to 35.5 µM.

Usually inhibition stands for the change of the read-out against control, counted positive when it falls.

These data come from patent US8410152B2 (Max-Planck-Gesellschaft zur Forderung der Wissenschaften e. …, priority 2006, dated 2013).
